Tests used:
[1] = in vitro; conditions: rat
From the text: Brains were used from 18-day rat embryos. The extracted hippocampi were placed in modified Hanks saline solution (mHBSS, for its name in English: Hank's buffer salt solution) and washed three times to then add trypsin (0.25%). After this treatment, the hippocampi were washed with mHBSS and transferred to a MEM medium (Minimum Essential Medium) supplemented with 10% horse serum (HS), disintegrating with Pasteur pipette. The cell suspension was collected by low speed centrifugation (2000×g×20 s) at room temperature. The supernatant was saved and the pellet was broken up again with a very fine tip Pasteur pipette. Another centrifugation was performed at low speed (2000×g×20 s) at room temperature. The supernatant containing the cells in suspension was pooled with the above supernatant and the viable cells were counted using Trypan blue (0.2%). Subsequently, the neurons were seeded in culture plates in MEM supplemented with 10% HS. After the hippocampal neurons adhered to the plaque, they were exchanged for medium with a Neurobasal medium with the culture supplement B27, remaining in culture for fourteen days.
Initially, the percentage of cellular viability of said hippocampal neurons exposed to different concentrations of hydrogen peroxide was evaluated. (10, 50, 100, 200, 500 μM) during 1 h. Hydrogen peroxide (H2O2) under biological conditions, it is a highly oxidizing compound.

[2] = Neuroprotection against oxidative damage by H2O2 in hippocampal cultures (neuronal viability); type: cell-based; conditions: rat, primary hippocampal neurons from 18-day rat embryos; 50 μM H2O2 for 1 h, vehicle pre-incubation, 24 h after exposure; read-out: cell viability in the control condition (vehicle) after H2O2
Description: Brains were used from 18-day rat embryos.
The hippocampal neurons of rat obtained in point 2.1 were used to evaluate the neuroprotective effect of the nanofibers of the invention.
The neuroprotective effect of the antioxidant mixture (AOX) was evaluated, for which the neurons obtained in point 2.1 were incubated for 24 hours in a medium supplemented with the mixture of antioxidants obtained in Example 1.1. Neuronal viability was compared to control (incubated with the vehicle without antioxidants) at concentrations of 0.001, 1, 10, 100, 150 and 200 μM of AOX, before and after the exposure of crops to a concentration of 50 μM of H2O2, during 1 h of incubation.
The neuroprotective effect of the nanofibers of the invention (NF) was evaluated, for which the neurons obtained in point 2.1 were incubated for 24 hours in a medium supplemented with the nanofibers of the invention obtained in Example 1.2. The neuronal viability compared to the control (incubated with the vehicle without nanofibers) was compared with nanofibers containing concentrations of 0.001, 1, 10, 100, 150 and 200 μM of AOX, before and after the exposure of crops to a concentration of 50 μM of H2O2, during 1 hour of incubation.

OO [H2O2, Hydrogen peroxide]
viability at 1 h, 10 μM [1]: 69.5%
viability at 1 h, 50 μM [1]: 44.3%
viability at 1 h, 100 μM [1]: 29.1%
viability at 1 h, 200 μM [1]: 19.6%
viability at 1 h, 500 μM [1]: 15.8%
viability at 1 h, 50 μM [2]: < 50%
